Measurements: patent publication EP0327492A1, “Herbicidally and plantgrowth regulatory active quinoline and pyrindine compounds” (CIBA-GEIGY AG, priority 1988, dated 1989)

How the values were obtained:
Type in all cases: in vivo
Abutilon [1] = assay: Pre-emergent herbicidal action (B.2); details: 500 bis 2000 [g/ha], evaluated after 3 weeks
Experimental: (§1) Im Gewächshaus wird unmittelbar nach der Einsaat der Versuchspflanzen in Saatschalen die Erdoberfläche mit einer wässrigen Dispersion der Wirkstoffe, erhalten aus einem 25 %igen Emulsionskonzentrat behandelt. Es werden Konzentrationen von 2000-500 g Wirksubstanz/Hektar angewendet. Die Saatschalen werden im Gewächshaus bei 22-25° C und 50-70 % relativer Luftfeuchtigkeit gehalten und der Versuch nach 3 Wochen ausgewertet und die Resultate nach folgender Notenskala ausgewertet. • 1 Pflanze hat nicht gekeimt oder ist eingegangen • 2-3 sehr starke Schäden • 4 starke Schäden • 5 mittlere Schäden, die Pflanzen sind verkümmert • 6 Schäden, die Pflanze kann regenerieren • 7-8 leichte Schäden • 9 normales Wachstum, wie das unbehandelter Pflanzen
(§2) Boniturnoten von 1 bis 4 (insbesondere von 1 bis 3) weisen auf eine gute bis sehr gute Herbizidwirkung hin. Boniturnoten von 6 bis 9 (insbesondere 7 bis 9) weisen auf eine gute Toleranz (insbesondere bei Kulturpflanzen) hin.

Solanum nigrum [2] = assay: Pre-emergent herbicidal action (B.2); details: 500 bis 2000 [g/ha], evaluated after 3 weeks
Experimental: as §1, §2

Bromus tectorum [3] = assay: Pre-emergent herbicidal action (B.2); details: 500 bis 2000 [g/ha], evaluated after 3 weeks
Experimental: as §1, §2

Chenopodium Sp. [4] = assay: Pre-emergent herbicidal action (B.2); details: 500 bis 2000 [g/ha], evaluated after 3 weeks
Experimental: as §1, §2

Ipomoea = assay: Pre-emergent herbicidal action (B.2); details: 500 bis 2000 [g/ha], evaluated after 3 weeks
Experimental: as §1, §2

Veronica Sp. [5] = assay: Pre-emergent herbicidal action (B.2); details: 500 bis 2000 [g/ha], evaluated after 3 weeks
Experimental: as §1, §2

Lolium perenne [6] = assay: Pre-emergent herbicidal action (B.2); details: 500 bis 2000 [g/ha], evaluated after 3 weeks
Experimental: as §1, §2

Chrysanthe. leuc. [7] = assay: Pre-emergent herbicidal action (B.2); details: 500 bis 2000 [g/ha], evaluated after 3 weeks
Experimental: as §1, §2

Sorghum halep. [8] = assay: Pre-emergent herbicidal action (B.2); details: 500 bis 2000 [g/ha], evaluated after 3 weeks
Experimental: as §1, §2

Avena fatua [9] = assay: Pre-emergent herbicidal action (B.2); details: 500 bis 2000 [g/ha], evaluated after 3 weeks
Experimental: as §1, §2

Stellaria [10] = assay: Pre-emergent herbicidal action (B.2); details: 500 bis 2000 [g/ha], evaluated after 3 weeks
Experimental: as §1, §2

Echinochloa crus galli [11] = assay: Pre-emergent herbicidal action (B.2); details: 500 bis 2000 [g/ha], evaluated after 3 weeks
Experimental: as §1, §2

Amaranthus ret. [12] = assay: Pre-emergent herbicidal action (B.2); details: 500 bis 2000 [g/ha], evaluated after 3 weeks
Experimental: as §1, §2

Digitaria sang. [13] = assay: Pre-emergent herbicidal action (B.2); details: 500 bis 2000 [g/ha], evaluated after 3 weeks
Experimental: as §1, §2

Alopecurus myos. [14] = assay: Pre-emergent herbicidal action (B.2); details: 500 bis 2000 [g/ha], evaluated after 3 weeks
Experimental: as §1, §2

Galium aparine [15] = assay: Pre-emergent herbicidal action (B.2); details: 500 bis 2000 [g/ha], evaluated after 3 weeks
Experimental: as §1, §2

Sinapis [16] = assay: Pre-emergent herbicidal action (B.2); details: 500 bis 2000 [g/ha], evaluated after 3 weeks
Experimental: as §1, §2

Untersaaten in Mais = assay: Pre-post selectivity: growth inhibition of undersown grasses (post-emergent) versus maize (pre-emergent)
Source text: Verbindungen der Formel I zeigen in vorteilhafter Weise eine "pre-post-Selektivität" bei verscheidenen Gräsern in Maiskulturen.
Die wuchshemmende Wirkung in Gräsern ist in postemergenter Applikation stark ausgeprägt, während bei gleichzeitiger Preemergenter Applikation Maispflanzen in ihrem Wuchs nur geringfügig gehemmt werden. Derartige "pre-post-Selektivitäten" erlauben somit die Aussaat von Mais in Gräsern. Dabei soll der Zeitpunkt für die Applikation der Aktivsubstanz der Formel so gewählt werden, dass die Aktivsubstanz postemergent für die Gräser ober preemergent für den Mais angewendet wird. In den ersten Wochen ist der Zuwachs der Gräser so stark gehemmt, dass die Maispflanze sich ungehindert entfalten kann.
Eine Mischung von Gräsern (z.B. Poa, Festuca, Lolium, Bromus, Cynosurus) werden in 15 cm - Kunststofftöpfen mit steriler Landerde angesät und im Gewächshaus bei einer Tagestemperatur von 21°C und einer Nachttemperatur von 17°C angezogen. Die Beleuchtungsdauer beträgt 13,5 Stunden/Tag bei einer Lichtintensität von mind. 7000 Lux. Nach dem Ablauf werden die Pflanzen wöchentlich auf ca. 6 cm Höhe zurückgeschnitten. Ca. 42 Tage nach der Saat und 1 Tag nach dem letzten Schnitt erfolgt die Applikation mit 60-500 g Wirkstoff/ha als wässrige Spritzbrühe. Die Wasseraufwandmenge ist ca. 500 I/ha.
20 Tage nach der Behandlung wird der Versuch ausgewertet. Hierbei wird die Höhe des Neuzuwachses gemessen und in % Hemmung zum Durchschnitt der unbehandelten Kontrollen dargestellt. Die nekrotischen Schäden sind in % zur gesamten Blattfläche aufgeführt.
Mais der Sorte Blizzard G188 werden in 15 cm - Kunststofftöpfen mit steriler gesiebter Landerde angesät und im Gewächshaus bei einer Tagestemperatur von 22°C und einer Nachttemperatur von 19°C aufgestellt. Die Beleuchtungsdauer beträgt mindestens 13,5 Stunden/Tag bei einer Lichtintensität von mindestens 7000 Lux. 1 Tag nach der Saat erfolgt die Applikation mit 60-500 g Wirkstoff/ha, in der Regel 25 %ig formuliert und in wässriger Spritzbrühe. Die Wasseraufwandmenge ist ca. 200 I/ha.
16 Tage nach der Behandlung wird der Versuch ausgewertet. […]

Abutilon [17] = assay: Post-emergent herbicidal action, contact herbicide (B.3); details: 500 bis 2000 [g/ha], 15 days after treatment
Experimental: as §1, §2
(§3) Eine Anzahl Unkräuter, sowohl monokotyle wie dikotyle, werden nach dem Auflaufen (im 4- bis 6-Blattstadium) mit einer wässrigen Wirkstoffdispersion in einer Dosierung von 2000-500 g Wirksubstanz pro Hektar auf die Pflanzen gespritzt und diese bei 24°-26°C und 45-60 % relativer Luftfeuchtigkeit gehalten. 15 Tage nach der Behandlung wird der Versuch nach dem in Beispiel B.2. gegebenen Massstab bewertet.

Solanum nigrum [18] = assay: as above; details: 500 bis 2000 [g/ha], 15 days after treatment
Experimental: as §1, §2, §3

Bromus tectorum [19] = assay: as above; details: 500 bis 2000 [g/ha], 15 days after treatment
Experimental: as §1, §2, §3

Chenopodium Sp. [20] = assay: as above; details: 500 bis 2000 [g/ha], 15 days after treatment
Experimental: as §1, §2, §3

Xanthium Sp. = assay: as above; details: 500 bis 2000 [g/ha], 15 days after treatment
Experimental: as §1, §2, §3

Veronica Sp. [21] = assay: as above; details: 500 bis 2000 [g/ha], 15 days after treatment
Experimental: as §1, §2, §3

Lolium perenne [22] = assay: as above; details: 500 bis 2000 [g/ha], 15 days after treatment
Experimental: as §1, §2, §3

Chrysanthe. leuc. [23] = assay: as above; details: 500 bis 2000 [g/ha], 15 days after treatment
Experimental: as §1, §2, §3

Sorghum halep. [24] = assay: as above; details: 500 bis 2000 [g/ha], 15 days after treatment
Experimental: as §1, §2, §3

Avena fatua [25] = assay: as above; details: 500 bis 2000 [g/ha], 15 days after treatment
Experimental: as §1, §2, §3

Stellaria [26] = assay: as above; details: 500 bis 2000 [g/ha], 15 days after treatment
Experimental: as §1, §2, §3

Echinochloa crus galli [27] = assay: as above; details: 500 bis 2000 [g/ha], 15 days after treatment
Experimental: as §1, §2, §3

Amaranthus ret. [28] = assay: as above; details: 500 bis 2000 [g/ha], 15 days after treatment
Experimental: as §1, §2, §3

Digitaria sang. [29] = assay: as above; details: 500 bis 2000 [g/ha], 15 days after treatment
Experimental: as §1, §2, §3

Alopecurus myos. [30] = assay: as above; details: 500 bis 2000 [g/ha], 15 days after treatment
Experimental: as §1, §2, §3

Galium aparine [31] = assay: as above; details: 500 bis 2000 [g/ha], 15 days after treatment
Experimental: as §1, §2, §3

Sinapis [32] = assay: as above; details: 500 bis 2000 [g/ha], 15 days after treatment
Experimental: as §1, §2, §3

**Q.** How did the Herbizidwirkung (Abutilon [1]) turn out when CC1CCCc2nc3c(cc21)C(=O)N1C(=O)C(C)(C(C)C)N=C31 (centres unmarked) [Verbindung 3.02, 2,7-Dimethyl-2-isopropyl-7,8,9,10-tetrahydro-3H,5H-imidazo[1',2':1,2]pyrrolo[3,4-b]chinolin-3,5-dion] was run?
**A.** gute bis sehr gute Herbizidwirkung (Boniturnoten von 1 bis 4 (insbesondere von 1 bis 3) weisen auf eine gute bis sehr gute Herbizidwirkung hin)

**Q.** What about the Herbizidwirkung (Solanum nigrum [2]) of the same compound?
**A.** gute bis sehr gute Herbizidwirkung (Boniturnoten von 1 bis 4 (insbesondere von 1 bis 3) weisen auf eine gute bis sehr gute Herbizidwirkung hin)

**Q.** And the Herbizidwirkung (Bromus tectorum [3])?
**A.** gute bis sehr gute Herbizidwirkung (Boniturnoten von 1 bis 4 (insbesondere von 1 bis 3) weisen auf eine gute bis sehr gute Herbizidwirkung hin)

**Q.** And the Herbizidwirkung (Chenopodium Sp. [4])?
**A.** gute bis sehr gute Herbizidwirkung (Boniturnoten von 1 bis 4 (insbesondere von 1 bis 3) weisen auf eine gute bis sehr gute Herbizidwirkung hin)

**Q.** What about the Herbizidwirkung (Ipomoea) of the same compound?
**A.** gute bis sehr gute Herbizidwirkung (Boniturnoten von 1 bis 4 (insbesondere von 1 bis 3) weisen auf eine gute bis sehr gute Herbizidwirkung hin)

**Q.** What about the Herbizidwirkung (Veronica Sp. [5]) of the same compound?
**A.** gute bis sehr gute Herbizidwirkung (Boniturnoten von 1 bis 4 (insbesondere von 1 bis 3) weisen auf eine gute bis sehr gute Herbizidwirkung hin)

**Q.** What about the Herbizidwirkung (Lolium perenne [6]) of the same compound?
**A.** gute bis sehr gute Herbizidwirkung (Boniturnoten von 1 bis 4 (insbesondere von 1 bis 3) weisen auf eine gute bis sehr gute Herbizidwirkung hin)

**Q.** What about the Herbizidwirkung (Chrysanthe. leuc. [7]) of the same compound?
**A.** gute bis sehr gute Herbizidwirkung (Boniturnoten von 1 bis 4 (insbesondere von 1 bis 3) weisen auf eine gute bis sehr gute Herbizidwirkung hin)

**Q.** What about the Herbizidwirkung (Sorghum halep. [8]) of the same compound?
**A.** gute bis sehr gute Herbizidwirkung (Boniturnoten von 1 bis 4 (insbesondere von 1 bis 3) weisen auf eine gute bis sehr gute Herbizidwirkung hin)

**Q.** What about the Herbizidwirkung (Avena fatua [9]) of the same compound?
**A.** gute bis sehr gute Herbizidwirkung (Boniturnoten von 1 bis 4 (insbesondere von 1 bis 3) weisen auf eine gute bis sehr gute Herbizidwirkung hin)

**Q.** And the Herbizidwirkung (Stellaria [10])?
**A.** gute bis sehr gute Herbizidwirkung (Boniturnoten von 1 bis 4 (insbesondere von 1 bis 3) weisen auf eine gute bis sehr gute Herbizidwirkung hin)

**Q.** What about the Herbizidwirkung (Echinochloa crus galli [11]) of the same compound?
**A.** gute bis sehr gute Herbizidwirkung (Boniturnoten von 1 bis 4 (insbesondere von 1 bis 3) weisen auf eine gute bis sehr gute Herbizidwirkung hin)

**Q.** What about the Herbizidwirkung (Amaranthus ret. [12]) of the same compound?
**A.** gute bis sehr gute Herbizidwirkung (Boniturnoten von 1 bis 4 (insbesondere von 1 bis 3) weisen auf eine gute bis sehr gute Herbizidwirkung hin)

**Q.** And the Herbizidwirkung (Digitaria sang. [13])?
**A.** gute bis sehr gute Herbizidwirkung (Boniturnoten von 1 bis 4 (insbesondere von 1 bis 3) weisen auf eine gute bis sehr gute Herbizidwirkung hin)

**Q.** And the Herbizidwirkung (Alopecurus myos. [14])?
**A.** gute bis sehr gute Herbizidwirkung (Boniturnoten von 1 bis 4 (insbesondere von 1 bis 3) weisen auf eine gute bis sehr gute Herbizidwirkung hin)

**Q.** What about the Herbizidwirkung (Galium aparine [15]) of the same compound?
**A.** gute bis sehr gute Herbizidwirkung (Boniturnoten von 1 bis 4 (insbesondere von 1 bis 3) weisen auf eine gute bis sehr gute Herbizidwirkung hin)

**Q.** What about the Herbizidwirkung (Sinapis [16]) of the same compound?
**A.** gute bis sehr gute Herbizidwirkung (Boniturnoten von 1 bis 4 (insbesondere von 1 bis 3) weisen auf eine gute bis sehr gute Herbizidwirkung hin)

**Q.** What about the “"pre-post-Selektivität" bei Untersaaten in Mais” value (Untersaaten in Mais) of the same compound?
**A.** ausgeprägter "pre-post-Selektivität"

**Q.** What about the Herbizidwirkung (Abutilon [17]) of the same compound?
**A.** gute bis sehr gute Herbizidwirkung (Boniturnoten von 1 bis 4 (insbesondere von 1 bis 3) weisen auf eine gute bis sehr gute Herbizidwirkung hin)

**Q.** And the Herbizidwirkung (Solanum nigrum [18])?
**A.** gute bis sehr gute Herbizidwirkung (Boniturnoten von 1 bis 4 (insbesondere von 1 bis 3) weisen auf eine gute bis sehr gute Herbizidwirkung hin)

**Q.** And the Herbizidwirkung (Bromus tectorum [19])?
**A.** gute bis sehr gute Herbizidwirkung (Boniturnoten von 1 bis 4 (insbesondere von 1 bis 3) weisen auf eine gute bis sehr gute Herbizidwirkung hin)

**Q.** And the Herbizidwirkung (Chenopodium Sp. [20])?
**A.** gute bis sehr gute Herbizidwirkung (Boniturnoten von 1 bis 4 (insbesondere von 1 bis 3) weisen auf eine gute bis sehr gute Herbizidwirkung hin)

**Q.** What about the Herbizidwirkung (Xanthium Sp.) of the same compound?
**A.** gute bis sehr gute Herbizidwirkung (Boniturnoten von 1 bis 4 (insbesondere von 1 bis 3) weisen auf eine gute bis sehr gute Herbizidwirkung hin)

**Q.** What about the Herbizidwirkung (Veronica Sp. [21]) of the same compound?
**A.** gute bis sehr gute Herbizidwirkung (Boniturnoten von 1 bis 4 (insbesondere von 1 bis 3) weisen auf eine gute bis sehr gute Herbizidwirkung hin)

**Q.** And the Herbizidwirkung (Lolium perenne [22])?
**A.** gute bis sehr gute Herbizidwirkung (Boniturnoten von 1 bis 4 (insbesondere von 1 bis 3) weisen auf eine gute bis sehr gute Herbizidwirkung hin)

**Q.** And the Herbizidwirkung (Chrysanthe. leuc. [23])?
**A.** gute bis sehr gute Herbizidwirkung (Boniturnoten von 1 bis 4 (insbesondere von 1 bis 3) weisen auf eine gute bis sehr gute Herbizidwirkung hin)

**Q.** And the Herbizidwirkung (Sorghum halep. [24])?
**A.** gute bis sehr gute Herbizidwirkung (Boniturnoten von 1 bis 4 (insbesondere von 1 bis 3) weisen auf eine gute bis sehr gute Herbizidwirkung hin)

**Q.** And the Herbizidwirkung (Avena fatua [25])?
**A.** gute bis sehr gute Herbizidwirkung (Boniturnoten von 1 bis 4 (insbesondere von 1 bis 3) weisen auf eine gute bis sehr gute Herbizidwirkung hin)

**Q.** What about the Herbizidwirkung (Stellaria [26]) of the same compound?
**A.** gute bis sehr gute Herbizidwirkung (Boniturnoten von 1 bis 4 (insbesondere von 1 bis 3) weisen auf eine gute bis sehr gute Herbizidwirkung hin)

**Q.** And the Herbizidwirkung (Echinochloa crus galli [27])?
**A.** gute bis sehr gute Herbizidwirkung (Boniturnoten von 1 bis 4 (insbesondere von 1 bis 3) weisen auf eine gute bis sehr gute Herbizidwirkung hin)

**Q.** What about the Herbizidwirkung (Amaranthus ret. [28]) of the same compound?
**A.** gute bis sehr gute Herbizidwirkung (Boniturnoten von 1 bis 4 (insbesondere von 1 bis 3) weisen auf eine gute bis sehr gute Herbizidwirkung hin)

**Q.** And the Herbizidwirkung (Digitaria sang. [29])?
**A.** gute bis sehr gute Herbizidwirkung (Boniturnoten von 1 bis 4 (insbesondere von 1 bis 3) weisen auf eine gute bis sehr gute Herbizidwirkung hin)

**Q.** What about the Herbizidwirkung (Alopecurus myos. [30]) of the same compound?
**A.** gute bis sehr gute Herbizidwirkung (Boniturnoten von 1 bis 4 (insbesondere von 1 bis 3) weisen auf eine gute bis sehr gute Herbizidwirkung hin)

**Q.** What about the Herbizidwirkung (Galium aparine [31]) of the same compound?
**A.** gute bis sehr gute Herbizidwirkung (Boniturnoten von 1 bis 4 (insbesondere von 1 bis 3) weisen auf eine gute bis sehr gute Herbizidwirkung hin)

**Q.** And the Herbizidwirkung (Sinapis [32])?
**A.** gute bis sehr gute Herbizidwirkung (Boniturnoten von 1 bis 4 (insbesondere von 1 bis 3) weisen auf eine gute bis sehr gute Herbizidwirkung hin)
